Source: patent US9006451B1, “2-anilinonicotinyl based chalcones useful as potential anticancer agents and process for preparation thereof” (Council of Scientific and Industrial Research, priority 2013, dated 2015)

Key:
Format in all cases: cell-based
MOLT-4 = assay: NCI 60 human tumor cell line screen (SRB): MOLT-4; conditions: MOLT-4, Leukemia, 48 hours, read-out: GI50 values (μM conc.)
Protocol: (§1) The in vitro anticancer activity studies for these chalcone analogues were carried out at the National Cancer Institute, USA.
(§2) The chalcone compounds have been tested at NCI, USA, against sixty human tumor cell lines derived from nine cancer types (leukemia, non-small cell lung cancer, colon cancer, CNS cancer, melanoma cancer, ovarian cancer, renal cancer, prostate cancer and breast cancer). For these compounds results are expressed as growth inhibition (GI50) values as per NCI protocol.
(§3) We describe here the development and implementation of a pilot-scale, in vitro, anticancer drug screen utilizing a panel of 60 human tumor cell lines organized into subpanels representing leukemia, melanoma, and cancers of the lung, colon, kidney, ovary, and central nervous system. The ultimate goal of this disease-oriented screen is to facilitate the discovery of new compounds with potential cell line-specific and/or subpanel-specific antitumor activity. In the current screening protocol, each cell line is inoculated onto microtiter plates, then preincubated for 28 hours. Subsequently, test agents are added in five 10-fold dilutions and the culture is incubated for an additional 48 hours. For each test agent, a dose-response profile is generated. End-point determinations of the cell viability or cell growth are performed by in situ fixation of cells, followed by staining with a protein-binding dye, sulforhodamine B (SRB). The SRB binds to the basic amino acids of cellular macromolecules; the solubilized stain is measured spectrophotometrically to determine relative cell growth or viability in treated and untreated cells.

RPMI-8226 = assay: NCI 60 human tumor cell line screen (SRB): RPMI-8226; conditions: RPMI-8226, Leukemia, 48 hours, read-out: GI50 values (μM conc.)
Protocol: as §1, §2, §3

SR = assay: NCI 60 human tumor cell line screen (SRB): SR; conditions: Leukemia, 48 hours, read-out: GI50 values (μM conc.)
Protocol: as §1, §2, §3

EKVX = assay: NCI 60 human tumor cell line screen (SRB): EKVX; conditions: Non-small cell lung, 48 hours, read-out: GI50 values (μM conc.)
Protocol: as §1, §2, §3

HOP-62 = assay: NCI 60 human tumor cell line screen (SRB): HOP-62; conditions: HOP-62, Non-small cell lung, 48 hours, read-out: GI50 values (μM conc.)
Protocol: as §1, §2, §3

HOP-92 = assay: NCI 60 human tumor cell line screen (SRB): HOP-92; conditions: HOP-92, Non-small cell lung, 48 hours, read-out: GI50 values (μM conc.)
Protocol: as §1, §2, §3

NCI-H226 = assay: NCI 60 human tumor cell line screen (SRB): NCI-H226; conditions: NCI-H226, Non-small cell lung, 48 hours, read-out: GI50 values (μM conc.)
Protocol: as §1, §2, §3

NCI-H23 = assay: NCI 60 human tumor cell line screen (SRB): NCI-H23; conditions: NCI-H23, Non-small cell lung, 48 hours, read-out: GI50 values (μM conc.)
Protocol: as §1, §2, §3

NCI-H322M = assay: NCI 60 human tumor cell line screen (SRB): NCI-H322M; conditions: Non-small cell lung, 48 hours, read-out: GI50 values (μM conc.)
Protocol: as §1, §2, §3

COLO-205 = assay: NCI 60 human tumor cell line screen (SRB): COLO-205; conditions: COLO-205, Colon, 48 hours, read-out: GI50 values (μM conc.)
Protocol: as §1, §2, §3

HCC-2998 = assay: NCI 60 human tumor cell line screen (SRB): HCC-2998; conditions: HCC-2998, Colon, 48 hours, read-out: GI50 values (μM conc.)
Protocol: as §1, §2, §3

HCT-116 = assay: NCI 60 human tumor cell line screen (SRB): HCT-116; conditions: HCT-116, Colon, 48 hours, read-out: GI50 values (μM conc.)
Protocol: as §1, §2, §3

HT29 = assay: NCI 60 human tumor cell line screen (SRB): HT29; conditions: HT-29, HT29, Colon, 48 hours, read-out: GI50 values (μM conc.)
Protocol: as §1, §2, §3

KM12 = assay: NCI 60 human tumor cell line screen (SRB): KM12; conditions: KM12, Colon, 48 hours, read-out: GI50 values (μM conc.)
Protocol: as §1, §2, §3

SW-620 = assay: NCI 60 human tumor cell line screen (SRB): SW-620; conditions: SW-620, Colon, 48 hours, read-out: GI50 values (μM conc.)
Protocol: as §1, §2, §3

SNB-19 = assay: NCI 60 human tumor cell line screen (SRB): SNB-19; conditions: SNB-19, CNS, 48 hours, read-out: GI50 values (μM conc.)
Protocol: as §1, §2, §3

SNB-75 = assay: NCI 60 human tumor cell line screen (SRB): SNB-75; conditions: SNB-75, CNS, 48 hours, read-out: GI50 values (μM conc.)
Protocol: as §1, §2, §3

M14 = assay: NCI 60 human tumor cell line screen (SRB): M14; conditions: M14, Melanoma, 48 hours, read-out: GI50 values (μM conc.)
Protocol: as §1, §2, §3

MDA-MB-435 = assay: NCI 60 human tumor cell line screen (SRB): MDA-MB-435; conditions: MDA-MB-435, Melanoma, 48 hours, read-out: GI50 values (μM conc.)
Protocol: as §1, §2, §3

SK-MEL-28 = assay: NCI 60 human tumor cell line screen (SRB): SK-MEL-28; conditions: SK-MEL-28, Melanoma, 48 hours, read-out: GI50 values (μM conc.)
Protocol: as §1, §2, §3

UACC-257 = assay: NCI 60 human tumor cell line screen (SRB): UACC-257; conditions: UACC-257, Melanoma, 48 hours, read-out: GI50 values (μM conc.)
Protocol: as §1, §2, §3

IGROV1 = assay: NCI 60 human tumor cell line screen (SRB): IGROV1; conditions: IGROV-1, IGROV1, Ovarian, 48 hours, read-out: GI50 values (μM conc.)
Protocol: as §1, §2, §3

OVCAR-3 = assay: NCI 60 human tumor cell line screen (SRB): OVCAR-3; conditions: OVCAR-3, Ovarian, 48 hours, read-out: GI50 values (μM conc.)
Protocol: as §1, §2, §3

NCI/ADR-RES = assay: NCI 60 human tumor cell line screen (SRB): NCI/ADR-RES; conditions: Ovarian, 48 hours, read-out: GI50 values (μM conc.)
Protocol: as §1, §2, §3

786-0 = assay: NCI 60 human tumor cell line screen (SRB): 786-0; conditions: 786-0, Renal, 48 hours, read-out: GI50 values (μM conc.)
Protocol: as §1, §2, §3

ACHN = assay: NCI 60 human tumor cell line screen (SRB): ACHN; conditions: Renal, 48 hours, read-out: GI50 values (μM conc.)
Protocol: as §1, §2, §3

RXF 393 = assay: NCI 60 human tumor cell line screen (SRB): RXF 393; conditions: RXF 393, Renal, 48 hours, read-out: GI50 values (μM conc.)
Protocol: as §1, §2, §3

MDA-MB-231/ATCC = assay: NCI 60 human tumor cell line screen (SRB): MDA-MB-231/ATCC; conditions: Breast, 48 hours, read-out: GI50 values (μM conc.)
Protocol: as §1, §2, §3

MDA-MB-468 = assay: NCI 60 human tumor cell line screen (SRB): MDA-MB-468; conditions: MDA-MB-468, Breast, 48 hours, read-out: GI50 values (μM conc.)
Protocol: as §1, §2, §3

Row | SMILES | GI50 (MOLT-4) [µM] | GI50 (RPMI-8226) [µM] | GI50 (SR) [µM] | GI50 (EKVX) [µM] | GI50 (HOP-62) [µM] | GI50 (HOP-92) [µM] | GI50 (NCI-H226) [µM] | GI50 (NCI-H23) [µM] | GI50 (NCI-H322M) [µM] | GI50 (COLO-205) [µM] | GI50 (HCC-2998) [µM] | GI50 (HCT-116) [µM] | GI50 (HT29) [µM] | GI50 (KM12) [µM] | GI50 (SW-620) [µM] | GI50 (SNB-19) [µM] | GI50 (SNB-75) [µM] | GI50 (M14) [µM] | GI50 (MDA-MB-435) [µM] | GI50 (SK-MEL-28) [µM] | also measured
1 | COc1cc(C(=O)/C=C/c2cccnc2Nc2ccccc2)cc(OC)c1OC [6a, (E)-3-(2-(Phenylamino)pyridin-3-yl)-1-(3,4,5-trimethoxyphenyl)prop-2-en-1-one] | 2.68 | 0.35 | 0.34 | 1.61 | 0.65 | 0.39 | 1.23 | 1.43 | 1.9 | 1.29 | 1.18 | 0.33 | 0.51 | 0.92 | 0.42 | 1.48 | 1.13 | 1.5 | 0.63 | 1.58 | GI50 (UACC-257): 1.51 µM; GI50 (IGROV1): 2.37 µM; GI50 (OVCAR-3): 0.42 µM; GI50 (NCI/ADR-RES): 1.03 µM; GI50 (786-0): 1.29 µM; GI50 (ACHN): 1.28 µM; GI50 (RXF 393): 1.12 µM; GI50 (MDA-MB-231/ATCC): 1.4 µM; GI50 (MDA-MB-468): 0.66 µM
2 | COc1cc(C(=O)/C=C/c2cccnc2Nc2ccc(Cl)cc2)cc(OC)c1OC [6ax, (E)-3-(2-(4-Chlorophenylamino)pyridin-3-yl)-1-(3,4,5-trimethoxyphenyl)prop-2-en-1-one] | 2.55 | 0.65 | 0.77 | 1.61 | 1.65 | 0.51 | 1.16 | 1.58 | 1.95 | 1.83 | 1.52 | 0.56 | 1.43 | 1.83 | 0.95 | 1.52 | 1.63 | 1.75 | 1.49 | 1.72 | GI50 (UACC-257): 1.5 µM; GI50 (IGROV1): 2.24 µM; GI50 (OVCAR-3): 1.31 µM; GI50 (NCI/ADR-RES): 1.64 µM; GI50 (786-0): 1.46 µM; GI50 (ACHN): 1.77 µM; GI50 (RXF 393): 1.26 µM; GI50 (MDA-MB-231/ATCC): 1.49 µM; GI50 (MDA-MB-468): 1.29 µM
3 | COc1ccc(Nc2ncccc2/C=C/C(=O)c2cc(OC)c(OC)c(OC)c2)cc1 [6h, (E)-3-(2-(4-Methoxyphenylamino)pyridin-3-yl)-1-(3,4,5-trimethoxyphenyl)prop-2-en-1-one] | 2.09 | 1.08 | 0.46 | 1.8 | 1.78 | 1.59 | 1.37 | 1.72 | 2.13 | 1.69 | 1.68 | 1.02 | 1.6 | 1.69 | 1.2 | 2.14 | 1.15 | 1.65 | 1.46 | 1.37 | GI50 (UACC-257): 1.53 µM; GI50 (IGROV1): 2 µM; GI50 (OVCAR-3): 1.64 µM; GI50 (NCI/ADR-RES): 2.23 µM; GI50 (786-0): 1.69 µM; GI50 (ACHN): 1.55 µM; GI50 (RXF 393): 1.49 µM; GI50 (MDA-MB-231/ATCC): 1.94 µM; GI50 (MDA-MB-468): 1.15 µM
4 | COc1cc(Nc2ncccc2/C=C/C(=O)c2cc(OC)c(OC)c(OC)c2)cc(OC)c1OC [6v, (E)-1-(3,4,5-Trimethoxyphenyl)-3-(2-(3,4,5-trimethoxyphenylamino)pyridin-3-yl)prop-2-en-1-one] | 6.72 | 6.83 | 3.6 | 7.55 | 12.1 | 0.94 | 10.8 | 10.2 | 21.1 | 4.44 | 7.74 | 3.77 | 5.51 | 6.5 | 4.81 | 6.8 | 4.12 | 8.99 | 5.63 | 5.43 | GI50 (UACC-257): 8.52 µM; GI50 (IGROV1): 12.6 µM; GI50 (OVCAR-3): 7.45 µM; GI50 (NCI/ADR-RES): 4.44 µM; GI50 (786-0): 5.98 µM; GI50 (ACHN): 5.34 µM; GI50 (RXF 393): 5.22 µM; GI50 (MDA-MB-231/ATCC): 12.6 µM; GI50 (MDA-MB-468): 6.78 µM
5 | COc1ccc(C(=O)/C=C/c2cccnc2Nc2cc(OC)c(OC)c(OC)c2)cc1 [6z, (E)-1-(4-Methoxyphenyl)-3-(2-(3,4,5-trimethoxyphenylamino)pyridin-3-yl)prop-2-en-1-one] | 2.26 | 0.85 | 0.09 | 10.8 | 2.18 | 2.4 | 1.73 | 4.02 | 7.38 | 1.54 | 1.42 | 0.53 | 0.37 | 0.46 | 0.39 | 2.87 | 2.44 | 2.55 | 0.74 | 3.72 | GI50 (UACC-257): 3.63 µM; GI50 (IGROV1): 4.64 µM; GI50 (OVCAR-3): 0.48 µM; GI50 (NCI/ADR-RES): 1.38 µM; GI50 (786-0): 1.31 µM; GI50 (ACHN): 1.7 µM; GI50 (RXF 393): 1.68 µM; GI50 (MDA-MB-231/ATCC): 2.15 µM; GI50 (MDA-MB-468): 0.77 µM
6 | COc1cc(/C=C/C(=O)c2cccnc2Nc2ccc(F)cc2)cc(OC)c1OC [7f, (E)-1-(2-(4-Fluorophenylamino)pyridin-3-yl)-3-(3,4,5-trimethoxyphenyl)prop-2-en-1-one] | 2.75 | 2.43 | 1.93 | 3.94 | 2.9 | 1.67 | 1.79 | 2.34 | 4.83 | 2.64 | 1.78 | 1.54 | 2.75 | 3.72 | 3.3 | 3.73 | 1.93 | 3.19 | 3.05 | 3.22 | GI50 (UACC-257): 2.9 µM; GI50 (IGROV1): 7.42 µM; GI50 (OVCAR-3): 2.63 µM; GI50 (NCI/ADR-RES): 2.37 µM; GI50 (786-0): 3.9 µM; GI50 (ACHN): 2.84 µM; GI50 (RXF 393): 2.81 µM; GI50 (MDA-MB-231/ATCC): 3.07 µM; GI50 (MDA-MB-468): 1.77 µM
